Data reported in patent US20250154163A1, “Pyrimidinone-Containing 17-Beta-Hydroxysteroid Dehydrogenase Type 13 Inhibitors” (ENANTA PHARMACEUTICALS, INC., priority 2023, published 2025).
pIC50: −log10 of the molar value.

Target: T1, human HSD17β13 (stable HEK293T cell line overexpressing human HSD17β13) (Homo sapiens, UniProt Q7Z5P4)
T1 construct: expressed in transfected cells
T1 sequence (Q7Z5P4 20-300): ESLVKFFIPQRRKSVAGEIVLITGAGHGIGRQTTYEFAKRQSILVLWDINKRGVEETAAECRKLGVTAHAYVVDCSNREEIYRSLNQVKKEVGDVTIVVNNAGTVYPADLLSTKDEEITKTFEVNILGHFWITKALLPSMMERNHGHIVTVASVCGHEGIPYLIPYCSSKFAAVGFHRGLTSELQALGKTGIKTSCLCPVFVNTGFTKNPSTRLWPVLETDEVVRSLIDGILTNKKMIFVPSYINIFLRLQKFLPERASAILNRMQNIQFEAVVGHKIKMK
Experiment: HSD17β13 inhibitor cell-based screening assay (conversion of estradiol-d2 to estrone-d2 by RF-MS)
Settings: conversion of estradiol-d2 to estrone-d2 after 24 hours
Experimental: The purpose of this cell-based assay is to determine the cellular efficacy (IC50) of HSD17β13 inhibitors in a stable HEK293 T cell line overexpressing human HSD17β13. The assay measures by Rapid Fire mass-spectrometry (RF-MS) the conversion of estradiol-d2 to estrone-d2. Cytotoxicity was also assessed via luminescent signal generated by the ATPlite viability assay reagent. To screen compounds for HSD17013 inhibition, black 384-well plates were seeded with 1000× concentration of compounds in a 9-point 1:3 dilution curve (final top concentration of 10 μM) as well as 1000× concentration of 17β-estradiol-d2 (5 μM final concentration) added to all wells. HEK293T cells stably overexpressing human HSD17013 and the parent HEK293T cell lines were then seeded in the plates on top of the compounds and substrate in MEM media containing 1% charcoal/dextran-treated FBS. Supernatant is collected and immediately frozen after 24 hours of incubation, and conversion of estradiol-d2 to estrone-d2 is measured at Pure Honey by RF-MS. The remaining media in the plate was removed from the wells and replaced with ATPlite viability assay reagent. Luminescent signal from the ATPlite reagent was measured on the Envision plate reader. 10 μL of 10 mM compounds stocks (1000×) dissolved in DMSO were pipetted into the appropriate wells on the 384 LDV plate (Labcyte; cat. no.: LP-0200) and the appropriate volumes of DMSO solvent were included onto an intermediate plate to further dilute the compound stocks to complete the 9-pt dose curve (final top concentration of 10 μM). 10 μL per well of 5 mM estradiol-d2 (1000×) (Cayman; item no.: 9002846) (5 μM final concentration) dissolved in DMSO was seeded into the appropriate number of wells on the same source plate as the compounds. The Echo 650 (Labcyte) was used for compound dilutions and dispensing both the compounds and the substrate onto a dry 384-well black assay plate (Falcon/Corning; cat. no.:353962). Afterwards, cells were immediately counted and seeded onto the plate. Cells were cultured for expansion in EMEM (ATCC; cat. no.: 30-2003)+10% FBS (Hyclone; cat. no.: SH3007003)+1×PenStrep (Gibco; cat. no.: 15140-122). All media for stable cell line overexpressing HSD17013 also included […] zeocin (Invitrogen; cat. no.: 46-0509) for selection. To prepare cells for seeding into the 384-well assay plate, cells were trypsinized for 3 minutes in the incubator. The Trypsin-EDTA (0.25%) (Gibco; cat. no.: 25200056) was neutralized with EMEM complete culture medium warmed to 37° C. Cells were then centrifugated at 300×g for 5 minutes at room temperature. The cell pellet was resuspended in phenol red-free MEM (Gibco; cat. no.: 51200-038)+1% charcoal/dextran-treated FBS (Hyclone; cat. no.: SH3006803) and 1×PenStrep warmed to 37° C. Cells were then counted using the TC20 automated cell-counter (Bio-Rad) and disposable duel chamber counting slides (Bio-Rad; cat. no.: 1450016) for a cell density of 1.5E5 cells/mL to then seed into the assay plate at 7.5E3 cells/well with 50 μL of media per well. Prior to the 24-hour time point, a solution of 1% formic acid (10×) (Honeywell; cat. no.: 94318) in MEM phenol red-free MEM+1% charcoal/dextran-treated FBS and 1×PenStrep was made. ATPlite luminescent ATP detection reagent (PerkinElmer; cat. no.: 6016739) was prepared according to the manufacturer's instructions. A new 384-well Falcon plate (collection plate) was seeded with 2 μL per well of 10× formic acid and then 18 μL of cell supernatant was added onto the formic acid, resulting in a 20 μL per well solution of 0.1% formic acid (1×) in supernatant. The plate of collected supernatant was immediately frozen on dry ice before being stored at −80° C. The collection plate was shipped to Momentum Biotechnologies for analysis. The remaining supernatant in the assay plate was discarded and 25 μL of ATPlite reagent was added to each well. […]

Compound	pIC50
CS(=O)(=O)c1cnc(-c2nc3sc4c(O)c(Cl)ccc4c3c(=O)n2Cc2cc(C(F)(F)F)no2)c(C2CC2)c1 [Example 112, 7-chloro-2-(3-cyclopropyl-5-(methylsulfonyl)pyridin-2-yl)-8-hydroxy-3-((3-(trifluoromethyl)isoxazol-5-yl)methyl)benzo[4,5]thieno[2,3-d]pyrimidin-4(3H)-one]	> 7.00
N#Cc1ccc(-c2nc3sc4c(O)c(Cl)ccc4c3c(=O)n2Cc2ccc(C(F)(F)F)nc2)c(C2CC2)c1 [Example 113, 4-(7-chloro-8-hydroxy-4-oxo-3-((6-(trifluoromethyl)pyridin-3-yl)methyl)-3,4-dihydrobenzo[4,5]thieno[2,3-d]pyrimidin-2-yl)-3-cyclopropylbenzonitrile]	> 7.00
N#Cc1ccc(-c2nc3sc4c(O)c(Cl)ccc4c3c(=O)n2Cc2cnc(C(F)(F)F)nc2)c(C2CC2)c1 [Example 114]	> 7.00
N#Cc1cnc(-c2nc3sc4c(O)c(Cl)ccc4c3c(=O)n2Cc2cc(C(F)(F)F)no2)c(C2CC2)c1 [Example 115]	> 7.00
O=c1c2c(nc(-c3ncc(C(F)F)cc3C3CC3)n1Cc1cnc(C(F)(F)F)nc1)sc1c(O)c(Cl)ccc12 [Example 116, 7-chloro-2-(3-cyclopropyl-5-(difluoromethyl)pyridin-2-yl)-8-hydroxy-3-((2-(trifluoromethyl)pyrimidin-5-yl)methyl)benzo[4,5]thieno[2,3-d]pyrimidin-4(3H)-one]	> 7.00
COc1cc(-c2nc3sc4c(O)c(Cl)ccc4c3c(=O)n2Cc2cnco2)c(C2CC2)cc1OC [Example 118]	6.30 to 7.00
COc1ccc(-c2nc3sc4c(O)c(Cl)ccc4c3c(=O)n2Cc2cnco2)c(C2CCCC2)c1 [Example 121]	6.30 to 7.00
COc1ccc(-c2nc3sc4c(O)c(Cl)ccc4c3c(=O)n2Cc2cnco2)c(C)c1 [Example 124]	6.30 to 7.00
C#CCn1c(-c2ccc(OC)cc2C2CC2)nc2sc3c(O)c(Cl)ccc3c2c1=O [Example 126]	6.30 to 7.00
CCn1c(=O)c(C)cn(CCCn2c(-c3ccc(OC)cc3C3CC3)nc3sc4c(O)c(Cl)ccc4c3c2=O)c1=O [Example 127]	> 7.00
COc1ccc(-c2nc3sc4c(O)c(Cl)ccc4c3c(=O)n2Cc2cnco2)c(C(C)(C)C)c1 [Example 128]	6.00 to 6.30
COc1ccc(-c2nc3sc4c(O)c(Cl)ccc4c3c(=O)n2Cc2cn(C(F)F)nn2)c(C2CC2)c1 [Example 129]	> 7.00
O=c1c2c(nc(-c3c(C4CC4)ccc(C(F)(F)F)c3F)n1Cc1cnco1)sc1c(O)c(Cl)ccc12 [Example 134]	> 7.00
O=c1c2c(nc(-c3cc(C(F)(F)F)ccc3C3CC3)n1Cc1cnco1)sc1c(O)c(Cl)ccc12 [Example 136]	> 7.00
O=c1c2c(nc(-c3cccc(C(F)(F)F)c3C3CC3)n1Cc1cnco1)sc1c(O)c(Cl)ccc12 [Example 139]	> 7.00
O=c1c2c(nc(-c3ccc4cc[nH]c4c3C3CC3)n1Cc1cnco1)sc1c(O)c(Cl)ccc12 [Example 140]	> 7.00
O=c1c2c(nc(-c3cc(F)c(C(F)F)cc3C3CC3)n1Cc1cnco1)sc1c(O)c(Cl)ccc12 [Example 141]	> 7.00
Cn1ncc2cc(-c3nc4sc5c(O)c(Cl)ccc5c4c(=O)n3Cc3cnco3)c(C3CC3)cc21 [Example 142]	> 7.00
O=c1c2c(nc(-c3ccc4ccccc4c3C3CC3)n1Cc1cnco1)sc1c(O)c(Cl)ccc12 [Example 145]	> 7.00
COc1cccc(-c2nc3sc4c(O)c(Cl)ccc4c3c(=O)n2Cc2cnco2)c1C1CC1 [Example 146]	> 7.00
CCn1c(=O)c(C)cn(CCn2c(-c3ccc(OC)cc3C3CC3)nc3sc4c(O)c(Cl)ccc4c3c2=O)c1=O [Example 150]	6.00 to 6.30
COc1ccc(-c2nc3sc4c(O)c(Cl)ccc4c3c(=O)n2Cc2ccncc2)c(C2CC2)c1 [Example 151]	> 7.00

Compound	pIC50
COc1ccc(-c2nc3sc4c(O)c(Cl)ccc4c3c(=O)n2Cc2cccnc2)c(C2CC2)c1 [Example 152]	> 7.00
COc1ccc(-c2nc3sc4c(O)c(Cl)ccc4c3c(=O)n2Cc2ccc(C(F)(F)F)nc2)c(C2CC2)c1 [Example 153]	> 7.00
COc1ccc(-c2nc3sc4c(O)c(Cl)ccc4c3c(=O)n2Cc2cncc(C(F)(F)F)c2)c(C2CC2)c1 [Example 154]	> 7.00
COc1ccc(-c2nc3sc4c(O)c(Cl)ccc4c3c(=O)n2Cc2ccnc(C(F)(F)F)c2)c(C2CC2)c1 [Example 155]	> 7.00
COc1ccc(-c2nc3sc4c(O)c(Cl)ccc4c3c(=O)n2Cc2ccnc(OC)c2)c(C2CC2)c1 [Example 156]	> 7.00
COc1ccc(C2=Nc3sc4c(O)c(Cl)ccc4c3C(=O)C2Cc2cc[nH]c(=O)c2)c(C2CC2)c1 (centres unmarked) [Example 157]	6.30 to 7.00
O=c1c2c(nc(-c3sc4ccccc4c3C3CC3)n1Cc1cnco1)sc1c(O)c(Cl)ccc12 [Example 158]	> 7.00
O=c1c2c(nc(-c3ccc(C(F)F)cc3C3CC3)n1Cc1cnco1)sc1c(O)c(Cl)ccc12 [Example 159]	> 7.00
COc1ccc(-c2nc3sc4c(O)c(Cl)ccc4c3c(=O)n2Cc2ccc(OC)nc2)c(C2CC2)c1 [Example 160]	> 7.00
COc1ccc(C2=Nc3sc4c(O)c(Cl)ccc4c3C(=O)C2Cc2ccc(=O)[nH]c2)c(C2CC2)c1 (centres unmarked) [Example 161]	> 7.00
O=c1c2c(nc(-c3cc(F)c(F)cc3C3CC3)n1Cc1ccc(C(F)(F)F)nc1)sc1c(O)c(Cl)ccc12 [Example 162]	> 7.00
O=c1c2c(nc(-c3cc(F)c(F)cc3C3CC3)n1Cc1cccnc1)sc1c(O)c(Cl)ccc12 [Example 163]	> 7.00
Cn1ncc2cc(-c3nc4sc5c(O)c(Cl)ccc5c4c(=O)n3Cc3cc(C(F)(F)F)no3)c(C3CC3)cc21 [Example 164]	> 7.00
O=c1c2c(nc(-c3cc(F)c(F)cc3C3CC3)n1Cc1cc(Br)no1)sc1c(O)c(Cl)ccc12 [Example 165]	> 7.00
CS(=O)(=O)c1ccc(-c2nc3sc4c(O)c(Cl)ccc4c3c(=O)n2Cc2cccnc2)c(C2CC2)c1 [Example 166]	> 7.00
Cn1ccc(Cn2c(-c3cc(F)c(F)cc3C3CC3)nc3sc4c(O)c(Cl)ccc4c3c2=O)cc1=O [Example 167]	> 7.00
COc1ccc(Cn2c(-c3cc(F)c(F)cc3C3CC3)nc3sc4c(O)c(Cl)ccc4c3c2=O)cn1 [Example 168]	> 7.00
N#Cc1ccc(-c2nc3sc4c(O)c(Cl)ccc4c3c(=O)n2Cc2cccnc2)c(C2CC2)c1 [Example 170]	> 7.00
N#Cc1ccc(Cn2c(-c3cc(F)c(F)cc3C3CC3)nc3sc4c(O)c(Cl)ccc4c3c2=O)cn1 [Example 172]	> 7.00
O=c1c2c(nc(-c3cnc(C(F)(F)F)cc3C3CC3)n1Cc1cc(C(F)(F)F)no1)sc1c(O)c(Cl)ccc12 [Example 173]	> 7.00
O=c1c2c(nc(-c3ccc(C(F)F)cc3C3CC3)n1Cc1cnc(C(F)(F)F)nc1)sc1c(O)c(Cl)ccc12 [Example 177]	> 7.00
O=c1c2c(nc(-c3cnc(C(F)(F)F)cc3C3CC3)n1Cc1cnc(C(F)(F)F)nc1)sc1c(O)c(Cl)ccc12 [Example 178]	> 7.00
